Results on three compounds are retold here after article PMC8893300, “A Dynamic Mass Redistribution Assay for the Human Sweet Taste Receptor Uncovers G-Protein Dependent Biased Ligands” (Frontiers in Pharmacology, 2022).

The test concerns the target T1, human sweet taste receptor (hT1R2/hT1R3) (Homo sapiens, UniProt Q7RTX0+Q8TE23).
T1 construct: expressed in transfected cells
T1 sequence (Q8TE23 20-839): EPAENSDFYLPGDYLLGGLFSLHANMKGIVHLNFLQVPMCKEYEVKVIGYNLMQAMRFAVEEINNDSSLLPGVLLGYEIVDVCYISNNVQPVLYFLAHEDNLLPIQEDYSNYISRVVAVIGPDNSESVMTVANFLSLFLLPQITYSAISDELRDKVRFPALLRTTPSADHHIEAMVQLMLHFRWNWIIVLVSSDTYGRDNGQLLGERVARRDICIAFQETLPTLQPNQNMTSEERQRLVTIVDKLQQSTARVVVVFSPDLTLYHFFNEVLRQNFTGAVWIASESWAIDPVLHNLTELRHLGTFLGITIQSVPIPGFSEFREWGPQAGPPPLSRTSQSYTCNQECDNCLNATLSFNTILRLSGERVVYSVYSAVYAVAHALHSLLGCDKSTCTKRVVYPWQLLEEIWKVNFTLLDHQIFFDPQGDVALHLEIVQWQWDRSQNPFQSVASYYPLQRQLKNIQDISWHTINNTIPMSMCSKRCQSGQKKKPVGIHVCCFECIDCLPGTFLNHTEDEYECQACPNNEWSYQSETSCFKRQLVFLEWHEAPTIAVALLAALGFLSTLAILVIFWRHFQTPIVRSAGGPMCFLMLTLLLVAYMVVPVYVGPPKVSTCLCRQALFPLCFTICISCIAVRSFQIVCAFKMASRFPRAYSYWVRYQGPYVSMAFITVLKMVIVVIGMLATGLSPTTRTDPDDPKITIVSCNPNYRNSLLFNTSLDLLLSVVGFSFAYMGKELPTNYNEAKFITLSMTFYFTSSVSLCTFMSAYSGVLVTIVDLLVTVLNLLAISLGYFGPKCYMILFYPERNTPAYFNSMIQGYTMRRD
T1 sequence (Q7RTX0 21-852): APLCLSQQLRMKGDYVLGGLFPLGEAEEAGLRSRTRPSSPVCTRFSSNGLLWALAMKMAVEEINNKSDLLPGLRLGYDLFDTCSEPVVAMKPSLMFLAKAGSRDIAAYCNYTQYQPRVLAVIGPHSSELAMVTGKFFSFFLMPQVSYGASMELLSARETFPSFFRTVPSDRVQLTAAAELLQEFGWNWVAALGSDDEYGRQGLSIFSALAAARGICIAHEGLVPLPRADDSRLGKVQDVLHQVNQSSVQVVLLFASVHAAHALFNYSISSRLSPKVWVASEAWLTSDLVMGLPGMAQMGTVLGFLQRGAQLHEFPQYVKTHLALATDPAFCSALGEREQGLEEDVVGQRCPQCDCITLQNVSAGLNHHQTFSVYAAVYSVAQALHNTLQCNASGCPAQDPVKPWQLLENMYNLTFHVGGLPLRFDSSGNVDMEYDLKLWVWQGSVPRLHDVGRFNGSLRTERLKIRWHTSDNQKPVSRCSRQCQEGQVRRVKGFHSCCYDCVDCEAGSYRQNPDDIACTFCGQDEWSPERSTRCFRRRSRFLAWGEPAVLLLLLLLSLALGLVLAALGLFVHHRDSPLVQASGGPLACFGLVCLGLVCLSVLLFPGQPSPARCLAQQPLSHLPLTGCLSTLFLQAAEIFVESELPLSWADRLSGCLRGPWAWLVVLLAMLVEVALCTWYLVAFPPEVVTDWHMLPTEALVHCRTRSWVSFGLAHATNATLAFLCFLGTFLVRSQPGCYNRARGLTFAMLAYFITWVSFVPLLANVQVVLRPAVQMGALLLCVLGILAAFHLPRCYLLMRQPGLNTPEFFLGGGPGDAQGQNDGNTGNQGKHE
As to the kind of experiment: DMR assay (Epic reader) on R2/R3 U2OS cells, endogenous G proteins. As to conditions: for EC50: R2/R3 U2OS cells, peak DMR response; for ΔlogR DMR Mean: Table 2, operational model, logR minus sucralose logR; for Activity in DMR assay Emax: top asymptote of dose-response normalized to 1 mM sucralose. The class given is cell-based.

The mark [1] stands for this setting: read-out: Activity in DMR assay EC50.
Setting [2] is: read-out: Activity in DMR assay pEC50 (converted).

Where two headings read alike, the source gives them in different places. Marks after values point to notes of the source that are not given here.

Regarding `COC(=O)[C@H](Cc1ccccc1)NC(=O)[C@H](CC(=O)O)NCCC(C)(C)C` [Neotame], the “ΔlogR DMR Mean” value is 1.15 and the “Activity in DMR assay Emax” value is 99*. In addition, under setting [1], the EC50 stood at 7.7 µM. Also, the EC50 under setting [2] was 7.29 µM.

With `CC(C)Oc1ccc(NC(=S)NCc2ccc[nH]2)cc1` [S819], the “ΔlogR DMR Mean” value was determined as 2.52 and the “Activity in DMR assay Emax” value was 143*. Also, the EC50 under setting [1] is 0.7 µM. Further, the EC50 under setting [2] is 0.637 µM.

Take `CC(C)Oc1ccc(NC(=S)NCc2cccs2)cc1` [S5227]: the “ΔlogR DMR Mean” value was found to be 1.84 and the “Activity in DMR assay Emax” value was 128. The EC50 under setting [1] was found to be 2.2 µM. Also, the EC50 under setting [2] is 2.07 µM.
